Experiment [1] concerns Aβ42. The experiment can be described thus: PCN assay: Aβ42 secreted by primary cortical neuronal cells, ELISA. Conditions: primary cortical neuronal cells from 16-day mouse embryos; 16-20 hours incubation with test compound; read-out: pIC50 Aβ42 PCN assay (converted). It counts as cell-based. On the procedure:
Compounds were diluted in 100% DMSO and stored at […] prior to use. Primary cortical neuronal cells (PCN) were isolated from 16-day mouse embryos and cultured in Ham's F12 media containing 10% Foetal bovine serum, 10 mM Hepes, 2 mM L-glutamine and 100 U/mL Penicillin-Streptomycin. 150000-250000 cells/well, in 200 μL cell media were seeded onto 96-well poly-D-Lysine coated plates. After incubation at 37° C., 5% CO2 for five days, the media was exchanged for fresh medium containing test compound diluted ×100, before further incubation for 16-20 hours at 37° C. and 5% CO2. After incubation with test compound the amount of […] secreted to cell medium was analyzed using the solid phase sandwich Enzyme-Linked-Immuno-Sorbent Assay (ELISA)-kit from Invitrogen for detection of mouse βAmyloid 1-42. Potential cytotoxic effects of the compounds were assayed by measuring the ATP content (Via Light) from cell lysate.
(An ELISA detects its analyte on a solid surface through an enzyme-linked reagent.)

Experiment [2] concerns Aβ42. As to the kind of experiment: HEK assay: Aβ42 secreted to cell medium, Meso Scale Discovery electrochemiluminescence. The note with it: Homo sapiens, HEK293; HEK cell line stably expressing APPswe; 4-6 hours incubation with test compound; read-out: pIC50 Aβ42 HEK assay (converted). It counts as cell-based. On the procedure: Compounds were diluted in 100% DMSO and stored at […] prior to use. Human Embryonic Kidney (HEK) cell line stably expressing APP with the Swedish mutation (APPswe) was cultured using Dulbecco's Modified Eagles medium (DMEM) supplied with […] glucose, Na-pyruvate and GlutaMAX, 10% Foetal bovine serum, 100 U/mL penicillin-streptomycin (PEST), 1× non-essential amino acids (NEAA), […] Hepes, 100 μg/mL Zeocine. Cells at about 80% confluence were washed with PBS, detached from culture flasks using 1× Trypsin/EDTA diluted in PBS, re-suspended in cell media and plated in 384-well poly-d-lysine coated cell culture plates at about 10000-15000 cells/well, in 25 μL cell media. Optionally, cryo-preserved cells (frozen and stored at −140° C. in 90% cell media and 10% DMSO) were thawed, washed and plated as above. Next the cells were incubated for 15-24 h at 37° C. and 5% CO2, after which cell medium was changed. Fresh medium containing test compound diluted ×200 from prepared compound plate was added to the cells before further incubation for 4-6 hours at 37° C. and 5% CO2. After incubation with test compound the amount of Aβ peptides, including Aβ42, Aβ40, Aβ39, Aβ38 and Aβ37, secreted to cell medium was analyzed using the electrochemiluminescence assay technology from Meso Scale Discovery Technology, in combination with specific antibodies raised against the different Aβ peptides. Potential cytotoxic effects of the compounds were assayed by measuring the ATP content (ViaLight) from cell lysate.

The structures appear in SMILES notation.

Consider `COc1cn(-c2ccc(Nc3nc(COCC(F)(F)F)cc(C(C)O)n3)cc2OC)cn1` (stereo not drawn) [Example 31, 1-(2-(3-Methoxy-4-(4-methoxy-1H-imidazol-1-yl)phenylamino)-6-((2,2,2-trifluoroethoxy)-methyl)pyrimidin-4-yl)ethanol], for which the values for the IC50 with Aβ42 [1] and with Aβ42 [2] were 316 nM and 251 nM, respectively.

Take `COc1cn(-c2ccc(Nc3nc(COCC(F)(F)F)cc(C(C)(C)O)n3)cc2OC)cn1` [Example 32, 2-(2-(3-Methoxy-4-(4-methoxy-1H-imidazol-1-yl)phenylamino)-6-((2,2,2-trifluoroethoxy)-methyl)pyrimidin-4-yl)propan-2-ol]: the IC50 in the experiment with Aβ42 [1] was 316 nM; with Aβ42 [2] it was 100 nM.

For `COc1cc(Nc2nc(COCC(F)(F)F)cc(NCC3CC3)n2)ccc1-n1cnc(C)c1` [Example 33, N^4-(Cyclopropylmethyl)-N^2-(3-methoxy-4-(4-methyl-1H-imidazol-1-yl)phenyl)-6-((2,2,2-trifluoroethoxy)methyl)pyrimidine-2,4-diamine], the IC50 was 50.1 nM in the experiment with Aβ42 [1] and 39.8 nM in the experiment with Aβ42 [2].

Regarding `COc1cc(Nc2nc(COCC(F)(F)F)cc(NC3CC3)n2)ccc1-n1cnc(C)c1` [Example 34, N^4-Cyclopropyl-N^2-(3-methoxy-4-(4-methyl-1H-imidazol-1-yl)phenyl)-6-((2,2,2-trifluoroethoxy)methyl)pyrimidine-2,4-diamine], the IC50 in the experiment on Aβ42 [1] is 100 nM; with Aβ42 [2] it was 50.1 nM.

Consider `COc1cc(Nc2nc(COCC(F)(F)F)cc(NC3COC3)n2)ccc1-n1cnc(C)c1` [Example 35, N^2-(3-Methoxy-4-(4-methyl-1H-imidazol-1-yl)phenyl)-N^4-(oxetan-3-yl)-6-((2,2,2-trifluoroethoxy)methyl)pyrimidine-2,4-diamine], for which the results for the IC50 in the experiment on Aβ42 [1] and in the experiment on Aβ42 [2] were 25.1 nM and 50.1 nM, respectively.

Take `COc1cc(Nc2nc(COCC(F)(F)F)cc(NCC(C)(C)O)n2)ccc1-n1cnc(C)c1` [Example 36, 1-(2-(3-Methoxy-4-(4-methyl-1H-imidazol-1-yl)phenylamino)-6-((2,2,2-trifluoroethoxy)-methyl)pyrimidin-4-ylamino)-2-methylpropan-2-ol]: the IC50 is 39.8 nM in the experiment with Aβ42 [1] and 63.1 nM with Aβ42 [2].

Take `COCCNc1cc(COCC(F)(F)F)nc(Nc2ccc(-n3cnc(C)c3)c(OC)c2)n1` [Example 37, N2-(3-Methoxy-4-(4-methyl-1H-imidazol-1-yl)phenyl)-N4-(2-methoxyethyl)-6-((2,2,2-trifluoroethoxy)methyl)pyrimidine-2,4-diamine]: the figures for the IC50 in the experiment with Aβ42 [1] and with Aβ42 [2] were 63.1 nM and 39.8 nM, respectively.

Take `COc1cc(Nc2nc(COCC(F)(F)F)cc(NCCC#N)n2)ccc1-n1cnc(C)c1` [Example 38, 3-(2-(3-Methoxy-4-(4-methyl-1H-imidazol-1-yl)phenylamino)-6-((2,2,2-trifluoroethoxy)-methyl)pyrimidin-4-ylamino)propanenitrile]: the IC50 with Aβ42 [1] was 39.8 nM; in the experiment with Aβ42 [2], 50.1 nM.

Consider `COc1cc(Nc2nc(CNCc3ccccc3)cc(COCC(F)(F)F)n2)ccc1-c1cnnc(C)c1` [Example 39, 4-((Benzylamino)methyl)-N-(3-methoxy-4-(6-methylpyridazin-4-yl)phenyl)-6-((2,2,2-trifluoroethoxy)methyl)pyrimidin-2-amine], for which the IC50 is 200 nM in the experiment with Aβ42 [1] and 126 nM in the experiment with Aβ42 [2].

As for `COc1cc(Nc2nc(COCC(F)(F)F)cc(CN3CC(F)C3)n2)ccc1-n1cnc(C)c1` [Example 40, 4-((3-Fluoroazetidin-1-yl)methyl)-N-(3-methoxy-4-(4-methyl-1H-imidazol-1-yl)phenyl)-6-((2,2,2-trifluoroethoxy)methyl)pyrimidin-2-amine], the IC50 was 100 nM in the experiment on Aβ42 [1] and 126 nM in the experiment with Aβ42 [2].

With `COc1cc(Nc2nc(COCC(F)(F)F)cc(CN3CC(F)C3)n2)ccc1-c1cnnc(C)c1` [Example 42, 4-((3-Fluoroazetidin-1-yl)methyl)-N-(3-methoxy-4-(6-methylpyridazin-4-yl)phenyl)-6-((2,2,2-trifluoroethoxy)methyl)pyrimidin-2-amine], the IC50 in the experiment on Aβ42 [1] is 251 nM; with Aβ42 [2] it was 79.4 nM.

As to `COc1cc(Nc2nc(COCC(F)(F)F)cc(C(C)N3CC(F)C3)n2)ccc1-n1cnc(C)c1` (stereo not drawn) [Example 43, 4-(1-(3-Fluoroazetidin-1-yl)ethyl)-N-(3-methoxy-4-(4-methyl-1H-imidazol-1-yl)phenyl)-6-((2,2,2-trifluoroethoxy)methyl)pyrimidin-2-amine], the figures for the IC50 with Aβ42 [1] and with Aβ42 [2] were 158 nM and 31.6 nM, respectively.

Regarding `COc1cc(Nc2nc(COCC(F)(F)F)cc(C(C)O)n2)ccc1-n1cnc(C)c1` (stereo not drawn) [Example 44, 1-(2-(3-Methoxy-4-(4-methyl-1H-imidazol-1-yl)phenylamino)-6-((2,2,2-trifluoroethoxy)-methyl)pyrimidin-4-yl)ethanol], the IC50 in the experiment with Aβ42 [1] was 100 nM; with Aβ42 [2] it was 50.1 nM.

As for `CCC(C)(O)c1cc(COCC(F)(F)F)nc(Nc2ccc(-n3cnc(C)c3)c(OC)c2)n1` (stereo not drawn) [Example 45, 2-(2-(3-Methoxy-4-(4-methyl-1H-imidazol-1-yl)phenylamino)-6-((2,2,2-trifluoroethoxy)-methyl)pyrimidin-4-yl)butan-2-ol], the results for the IC50 in the experiment with Aβ42 [1] and in the experiment with Aβ42 [2] were 63.1 nM and 50.1 nM, respectively.

As to `COc1cc(Nc2nc(COCC(F)(F)F)cc(C(C)(C)O)n2)ccc1-c1cnc(C)o1` [Example 46, 2-(2-(3-Methoxy-4-(2-methyloxazol-5-yl)phenylamino)-6-((2,2,2-trifluoroethoxy)methyl)-pyrimidin-4-yl)propan-2-ol], the figures for the IC50 in the experiment with Aβ42 [1] and with Aβ42 [2] were 79.4 nM and 39.8 nM, respectively.

For `COc1cc(Nc2nc(COCC(F)(F)F)cc(C(C)(C)O)n2)ccc1-c1cnnc(C)c1` [Example 47, 2-(2-(3-Methoxy-4-(6-methylpyridazin-4-yl)phenylamino)-6-((2,2,2-trifluoroethoxy)-methyl)pyrimidin-4-yl)propan-2-ol], the IC50 is 100 nM with Aβ42 [1] and 50.1 nM in the experiment on Aβ42 [2].

Turning to `COc1cc(Nc2nc(COCC(F)(F)F)cc(C(C)(O)C(C)C)n2)ccc1-c1cnc(C)o1` (stereo not drawn) [Example 48, 2-(2-(3-Methoxy-4-(2-methyloxazol-5-yl)phenylamino)-6-((2,2,2-trifluoroethoxy)methyl)-pyrimidin-4-yl)-3-methylbutan-2-ol], the results for the IC50 in the experiment with Aβ42 [1] and in the experiment on Aβ42 [2] were 50.1 nM and 25.1 nM, respectively.

Regarding `COc1cc(Nc2nc(COCC(F)(F)F)cc(C(O)c3ccccc3)n2)ccc1-n1cnc(C)c1` (stereo not drawn) [Example 49, (2-(3-Methoxy-4-(4-methyl-1H-imidazol-1-yl)phenylamino)-6-((2,2,2-trifluoroethoxy)-methyl)pyrimidin-4-yl)(phenyl)methanol], the IC50 in the experiment with Aβ42 [1] and in the experiment on Aβ42 [2] was 79.4 nM each time.

For `COc1cc(Nc2nc(COC(CF)CF)cc(C(C)(C)O)n2)ccc1-n1cnc(C)c1` [Example 50, 2-(6-((1,3-Difluoropropan-2-yloxy)methyl)-2-(3-methoxy-4-(4-methyl-1H-imidazol-1-yl)phenylamino)pyrimidin-4-yl)propan-2-ol], the IC50 in the experiment with Aβ42 [1] is 63.1 nM; in the experiment with Aβ42 [2], 79.4 nM.

With `COc1cc(Nc2nc(COCC(F)(F)F)cc(OCC3CC3)n2)ccc1-n1cnc(C)c1` [Example 51, 4-(Cyclopropylmethoxy)-N-[3-methoxy-4-(4-methyl-1H-imidazol-1-yl)phenyl]-6-[(2,2,2-trifluoroethoxy)methyl]pyrimidin-2-amine], the IC50 was 126 nM in the experiment on Aβ42 [1] and 63.1 nM in the experiment with Aβ42 [2].

As for `CCOC1(c2cc(C(C)(C)O)nc(Nc3ccc(-n4cnc(C)c4)c(OC)c3)n2)CC1(F)F` (stereo not drawn) [Example 52, 2-(6-(1-Ethoxy-2,2-difluorocyclopropyl)-2-(3-methoxy-4-(4-methyl-1H-imidazol-1-yl)phenylamino)pyrimidin-4-yl)propan-2-ol], the IC50 in the experiment with Aβ42 [1] and with Aβ42 [2] was 200 nM throughout.
